PubChem BioAssay (NCI)
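Each compound was tested at five concentrations against cells in 96-well plates for 48 hours. At the GI50, growth is halved. Definition used: TGI = concentration required for complete inhibition of growth.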

How the values were obtained:
Assay in all cases: DTP human tumour cell line panel, 48 h
[1] = system: U251 CNS
[2] = system: UACC-257 melanoma
[3] = system: NCI-H522 lung
[4] = system: CAKI-1 renal
[5] = system: BT-549 breast
[6] = system: OVCAR-4 ovarian
[7] = system: RXF 393 renal
[8] = system: SN12C renal
[9] = system: TK-10 renal
[10] = system: MOLT-4 leukemia
[11] = system: 786-0 renal
[12] = system: MALME-3M melanoma
[13] = system: SF-539 CNS
[14] = system: ACHN renal
[15] = system: IGROV1 ovarian
[16] = system: SNB-19 CNS
[17] = system: KM12 colon
[18] = system: HCT-15 colon
[19] = system: COLO 205 colon
[20] = system: EKVX NSCLC
[21] = system: MDA-MB-435
[22] = system: HS 578T breast
[23] = system: SF-268 CNS
[24] = system: HCT-116 colon
[25] = system: UACC-62 melanoma
[26] = system: SR leukemia
[27] = system: HOP-92 NSCLC
[28] = system: K-562 leukemia
[29] = system: NCI/ADR-RES ovarian

O=C(NC(=S)Nc1ccccn1)c1ccccc1 showed a GI50 [1] greater than 100 µM, a TGI [1] greater than 100 µM and a GI50 [2] greater than 100 µM. For the same compound, the TGI [2] was greater than 100 µM, the GI50 [3] was greater than 100 µM and the TGI [3] was greater than 100 µM. It also gave a GI50 [4] greater than 100 µM, a TGI [4] greater than 100 µM and a GI50 [5] greater than 100 µM. It also gave a TGI [5] greater than 100 µM, a GI50 [6] of 24.4 µM and a TGI [6] greater than 100 µM. It also gave a GI50 [7] greater than 100 µM, a TGI [7] greater than 100 µM and a GI50 [8] greater than 100 µM. For the same compound, the TGI [8] was greater than 100 µM, the GI50 [9] was greater than 100 µM and the TGI [9] was greater than 100 µM. It also gave a GI50 [10] greater than 100 µM, a TGI [10] greater than 100 µM and a GI50 [11] greater than 100 µM. For the same compound, the TGI [11] was greater than 100 µM, the GI50 [12] was greater than 100 µM and the TGI [12] was greater than 100 µM. For the same compound, the GI50 [13] was greater than 100 µM, the TGI [13] was greater than 100 µM and the GI50 [14] was greater than 100 µM. For the same compound, the TGI [14] was greater than 100 µM, the GI50 [15] was 61.7 µM and the TGI [15] was greater than 100 µM. For the same compound, the GI50 [16] was greater than 100 µM, the TGI [16] was greater than 100 µM and the GI50 [17] was greater than 100 µM. For the same compound, the TGI [17] was greater than 100 µM, the GI50 [18] was 70.7 µM and the TGI [18] was greater than 100 µM. The GI50 [19] was greater than 100 µM, the TGI [19] was greater than 100 µM and the GI50 [20] was 85.2 µM. It also gave a TGI [20] greater than 100 µM, a GI50 [21] greater than 100 µM and a TGI [21] greater than 100 µM. It also gave a GI50 [22] of 71.5 µM, a TGI [22] greater than 100 µM and a GI50 [23] greater than 100 µM. For the same compound, the TGI [23] was greater than 100 µM, the GI50 [24] was greater than 100 µM and the TGI [24] was greater than 100 µM. The GI50 [25] was greater than 100 µM, the TGI [25] was greater than 100 µM and the GI50 [26] was greater than 100 µM. The TGI [26] was greater than 100 µM, the GI50 [27] was 83.9 µM and the TGI [27] was greater than 100 µM. The GI50 [28] was greater than 100 µM, the TGI [28] was greater than 100 µM and the GI50 [29] was greater than 100 µM. For the same compound, the TGI [29] was greater than 100 µM.
